In US20030129193A1 (priority 2001, published 2003):

Assays:
[1] = tested on: thrombin-antithrombin-complexes (TAT); assay: Assessment of coagulation parameters: TAT; format: in vivo, mice; conditions: plasma, three days after i.v. treatment, tTF alone
Protocol: At the time of autopsy, citrated blood was sampled from the vena cava and thrombocyte-free plasma was prepared by centrifugation. The plasma was stored at −80° C. until further analysis. Thrombin-Antithrombin-complexes were detected with the Enzygnost® TAT micro-assay (Dade-Behring, Marburg, Germany) according to the manufacturer's instructions. ATIII levels were determined using the Coamatic® antithrombin-assay (Haemochrom, Essen, Germany) following the manufacturer's instructions. Changes in the blood levels of thrombin and plasmin were detected by mixing citrated plasma with the respective chromogenic substrates S2238 and S2403 (Haemochrom, Essen, Germany) and measuring the increase of the absorption at 405 nm by an ELISA reader.

[2] = Clinical signs of toxicity and histology of normal organs; format: in vivo, SCID mice; conditions: for Symptoms: tTF alone
Protocol: (§1) Mice were closely observed after treatment for clinical signs of toxicity and clinical status was documented at defined time points (5 minutes, 10 minutes, 15 minutes, 30 minutes, 1 hour, 2 hours, 24 hours, 48 hours, 72 hours). Blood samples were taken from the tail vein at 1 hour, 2 hours and 24 hours to measure TNFα blood levels. Three days after treatment, the mice were anesthetized, blood samples were taken from the vena cava for coagulation tests, and an autopsy was performed to document any changes in gross pathology. Tumors, lymph node metastases and the major normal organs (heart, lung, brain, liver, kidney, colon, spleen, pancreas) were harvested and prepared for histological analysis.
Tissue samples harvested at the time of autopsy were fixed in 3% NBF (normal buffered formalin) and embedded in paraffin wax. Tissue blocs were cut, dewaxed and stained with hematoxilin and eosin (H&E). Tissue sections were analyzed on a light microscope by two independent investigators and histological findings were documented. Tumor sections with necrotic areas were scanned with a GS-700 imaging densitometer (Biorad, Hercules, Calif.) and areas of necrosis were calculated as % of total section area. Statistical Analysis was performed using SPSS software (SPSS Science Software, Erkrath, Germany) applying the Mann-Whitney-U-test for ungrouped data.

[3] = tested on: L540rec human Hodgkin's lymphoma tumors; assay: Treatment studies, L540 Hodgkin's tumor necrosis; format: in vivo, SCID mice
Protocol: For in vivo studies, a metastasizing mouse model for human Hodgkin's lymphoma was used. 1×10^7 L540rec cells were injected subcutaneously into the right flank of SCID mice resulting in a subcutaneous tumor with lymph node metastases in the regional lymph node stations. Subcutanous tumors were measured with a caliper in three perpendicular directions a, b, and c, and volumes calculated according to the formula V=π/6×a×b×c.
Treatment was initiated when subcutaneous tumors reached a size of 150 to 300 μl. Reagents were administered into the lateral tail vein.
Mice were closely observed after treatment for clinical signs of toxicity and clinical status was documented at defined time points (5 minutes, 10 minutes, 15 minutes, 30 minutes, 1 hour, 2 hours, 24 hours, 48 hours, 72 hours). Blood samples were taken from the tail vein at 1 hour, 2 hours and 24 hours to measure TNFα blood levels. […]
Tissue samples harvested at the time of autopsy were fixed in 3% NBF (normal buffered formalin) and embedded in paraffin wax. […] Tissue sections were analyzed on a light microscope by two independent investigators and histological findings were documented. Tumor sections with necrotic areas were scanned with a GS-700 imaging densitometer (Biorad, Hercules, Calif.) and areas of necrosis were calculated as % of total section area. […]

[4] = tested on: HT29 human colorectal carcinoma; assay: Anti-tumor effects and tumor necrosis, HT29; format: in vivo, BALB/c nu/nu mice
[5] = tested on: citrated mouse or human plasma; assay: In vitro coagulation assay on A20 cells; format: cell-based
immobilized tTF = target: T1, immobilized tTF (Homo sapiens, UniProt P13726); assay: Real time binding study (surface plasmon resonance); conditions: alone or preincubated with endotoxin or factor VIIa
T1 construct: the extracellular domain of the mature Tissue Factor protein (amino acid 1-219 of the mature protein; inferred from Ni-NTA purification); made in house; host or cells: E. coli (periplasmic secretion, vector pswc7)
T1 sequence (P13726 33-251): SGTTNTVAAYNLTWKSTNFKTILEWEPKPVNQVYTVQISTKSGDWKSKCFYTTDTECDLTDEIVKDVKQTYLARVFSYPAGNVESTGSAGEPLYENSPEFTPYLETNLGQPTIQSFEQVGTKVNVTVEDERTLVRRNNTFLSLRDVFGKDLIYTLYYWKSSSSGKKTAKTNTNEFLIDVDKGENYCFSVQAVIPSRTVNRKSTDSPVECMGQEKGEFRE

bEnd 3 cells = assay: Cell bound coagulation assay, stimulated endothelial cells; format: cell-based, mouse; conditions: for Factor Xa generation: mix with 0.5 μg/ml factor VIIa; for Factor Xa generation due to Factor VIIa production: mix with 2 μg/ml factor VII and 0.01 μg/ml factor VIIa, factor VII background subtracted
Protocol: To assay the coagulation induction of stimulated versus unstimulated endothelial cells, bEnd 3 cells were seeded in 48 well tissue culture plates at a density of 1×10^4 cells per well and allowed to adhere overnight. Cells were stimulated with endotoxin (0.5 μg/ml and 10 μg/ml) or TNFα (500 U/ml) for 4 h at 37° C. […] After incubation for 45 min at room temperature, cells were washed and incubated with various coagulation factor mixes as follows: (1) 0.5 μg/ml factor VIIa in a mix containing 2.8 μg/ml factor IX, 3.4 μg/ml factor X, 50 μM phospholipids, in calcium buffer (as specified above); (2) 0.01 μg/ml factor VIIa in a mix as in (1); (3) 2 μg/ml factor VII (Calbiochem-Novabiochem, San Diego, Calif.) in a mix as in (1); (4) 2 […] factor VII, 0.01 μg/ml factor VIIa in a mix as in (1). The supernatant of wells was transferred into a 96 well ELISA plate. Substrate S2765 was added and Factor Xa generation measured alongside different concentrations of Factor Xa standard (7 nkatS2222; 0.7 nkatS2222; 0.07 nkatS2222). OD405nm values were calculated as nkatS2222 Factor Xa from the Factor Xa standard curve.
bEnd 3 cells were seeded in 48 well tissue culture plates at a density of 1×10^4 cells per well and allowed to adhere overnight. Cells were stimulated with endotoxin (0.5 μg/ml and 10 μg/ml) or TNFα (500 U/ml) for 4 h at 37° C. […] After incubation for 45 min at room temperature, cells were washed and incubated with coagulation factor mix as follows: 0.5 μg/ml factor VIIa in a mix containing 2.8 μg/ml factor IX, 3.4 μg/ml factor X, 50 μM phospholipids, in calcium buffer; supernatant of wells was transferred into a 96 well ELISA plate. Substrate S2765 was added and Factor Xa generation measured alongside different concentrations of Factor Xa standard (7 nkatS2222; 0,7 nkatS2222; 0,07 nkatS2222). OD405nm values were calculated as nkatS2222 Factor Xa from the Factor Xa standard curve.

[6] = tested on: 2F2B mouse endothelial cells; assay: Binding of tTF to endothelial cells (FACS, cell bound coagulation assay); format: cell-based
Protocol: Cells were washed and coagulation factor mix (as described above) was added. S2765 substrate was added and Factor Xa generation was measured as described above.
Fluorescent cells were detected on a flow cytometer (Becton Dickinson, San Jose, Calif.).

TNFα = TNFα serum levels in treated animals; format: in vivo, mice; conditions: tTF containing no endotoxin (n=6), any time point
Protocol: as §1
TNFα levels in serum were determined using the Quantikine-M kit (R&D Systems, Minneapolis, Minn.) according to the manufacturer's instructions.

For “tTF: extracellular domain of the mature Tissue Factor protein (amino acid 1-219)”, the TAT [1] was 25.4 ng/mL, the “histological findings in normal organs” value ([2]; light microscopy, three days after treatment) was “No histological abnormalities” and the Symptoms ([2]; listed as TTF) was “None”. The Symptoms ([2]; listed as endotoxin-free tTF) was “no clinical signs of toxicity”, the tumor tissue necrosis ([3]; 4 μg or 16 μg endotoxin-free tTF alone) was 0% and the “% tumor necrosis” value ([3]; Table 2, tTF alone) was 4%. The “growth discontinued after treatment” value ([4]; large (1200 mm^3) tumors, i.v.) was “about 7 days”, the “necrosis in tumor sections” value ([4]; small HT29 tumors, single agents, 24 hours) was “some necrosis” and the plasma coagulation time ([5]; 10^−10 M tTF219, absence of Factor VIIa) was 60 s. For the same substance, the plasma coagulation time ([5]; 10^−10 M tTF219, presence of 13.5 nM Factor VIIa) was 20 s, the coagulation time ([5]; 20,000 molecules per cell) was 140 s and the coagulation time ([5]; 300,000 molecules of tTF per cell) was 40 s. The “concentration at which plasma coagulated in 50 seconds” value ([5]; localized on A20 cells via B21-2/10H10) was 3 nM, the “increase in coagulation-inducing potency” value ([5]; presence of 0.1 nM Factor VIIa) was 2-5 fold and the “time until fibrin strands visible after addition of plasma” value ([5]; tTF bound to A20 cells by B21-2/10H10, mouse plasma) was 36 s. The “binding to immobilized tTF” value (immobilized tTF) was “did not bind to or homodimerize with immobilized tTF”, the “Factor Xa generation” value (bEnd 3 cells; stimulation with 0.5 μg/ml LPS) was 2.00 nkats2222 and the “Factor Xa generation due to Factor VIIa production” value (“Factor Xa generation due” for short) (bEnd 3 cells; stimulation with 0.5 μg/ml LPS) was 3.00 nkats2222. The “Factor Xa generation” value (bEnd 3 cells; stimulation with 10 μg/ml LPS) was 2.91 nkats2222, the “Factor Xa generation” value (bEnd 3 cells; stimulation with Medium) was 0.40 nkats2222 and the “Factor Xa generation due” value (bEnd 3 cells; stimulation with Medium) was 0.70 nkats2222. The “Factor Xa generation” value (bEnd 3 cells; stimulation with TNFα (500 U/ml)) was 0.67 nkats2222, the “Factor Xa generation due” value (bEnd 3 cells; stimulation with TNFα) was 1.91 nkats2222 and the “binding to endothelial cells expressing tissue factor” value [6] was “no binding of tTF to endothelial cells”. The TNFα serum level (TNFα) was “could not be detected”.
